Measurements reported in patent US20140051679A1, “KINASE INHIBITORS AND METHOD OF TREATING CANCER WITH SAME” (UNIVERISTY HEALTH NETWORKS, priority 2011, published 2014).
pIC50: −log10 of the molar value.

Key:
human TTK = target: T1, human TTK (Homo sapiens, UniProt P33981); experiment: TTK inhibition assay (indirect ELISA); format: biochemical; details: GST-TTK 0.68 nM, 16 μM ATP; read-out: IC50 Ranges TTK
T1 construct: amino terminal GST fusion of full length human TTK; purchased Invitrogen
T1 sequence (P33981 1-857): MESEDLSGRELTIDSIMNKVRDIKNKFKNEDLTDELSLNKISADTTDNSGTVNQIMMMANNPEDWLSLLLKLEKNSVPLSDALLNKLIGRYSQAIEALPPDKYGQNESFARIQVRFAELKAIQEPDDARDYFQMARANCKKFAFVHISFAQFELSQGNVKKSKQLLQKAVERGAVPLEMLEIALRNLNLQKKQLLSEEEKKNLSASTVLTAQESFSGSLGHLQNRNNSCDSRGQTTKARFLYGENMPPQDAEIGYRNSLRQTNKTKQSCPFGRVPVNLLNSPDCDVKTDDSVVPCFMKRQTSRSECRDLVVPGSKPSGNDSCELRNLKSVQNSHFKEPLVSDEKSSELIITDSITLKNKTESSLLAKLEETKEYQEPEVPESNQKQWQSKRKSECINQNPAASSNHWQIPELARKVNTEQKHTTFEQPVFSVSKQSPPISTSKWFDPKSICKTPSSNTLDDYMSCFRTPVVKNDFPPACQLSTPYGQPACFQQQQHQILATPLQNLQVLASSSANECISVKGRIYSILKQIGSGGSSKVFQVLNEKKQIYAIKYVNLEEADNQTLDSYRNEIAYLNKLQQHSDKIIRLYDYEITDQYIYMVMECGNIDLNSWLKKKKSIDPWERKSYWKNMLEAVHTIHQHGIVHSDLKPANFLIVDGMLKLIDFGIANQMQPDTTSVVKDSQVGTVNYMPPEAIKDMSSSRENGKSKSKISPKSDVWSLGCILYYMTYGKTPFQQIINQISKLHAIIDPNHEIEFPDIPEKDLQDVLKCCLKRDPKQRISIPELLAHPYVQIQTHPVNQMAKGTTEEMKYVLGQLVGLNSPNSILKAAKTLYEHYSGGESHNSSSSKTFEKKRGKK

[1] = test system: MDA-MB-231 breast cancer cells; experiment: Cell growth inhibition, Sulforhodamine B assay, MDA-MB-231; format: cell-based; details: Homo sapiens, 120 h, 5 days culture, SRB assay, read-out: Cell Line GI50 Range MDA-MB-231
Aurora B = target: T2, Aurora B (Homo sapiens, UniProt Q96GD4); experiment: Aurora B inhibition assay (Z-Lyte); format: biochemical; details: 28 nM Aurora B, 128 μM ATP; read-out: IC50 Ranges Aurora B
T2 construct: purchased Invitrogen PV3970
T2 sequence (Q96GD4 whole entry): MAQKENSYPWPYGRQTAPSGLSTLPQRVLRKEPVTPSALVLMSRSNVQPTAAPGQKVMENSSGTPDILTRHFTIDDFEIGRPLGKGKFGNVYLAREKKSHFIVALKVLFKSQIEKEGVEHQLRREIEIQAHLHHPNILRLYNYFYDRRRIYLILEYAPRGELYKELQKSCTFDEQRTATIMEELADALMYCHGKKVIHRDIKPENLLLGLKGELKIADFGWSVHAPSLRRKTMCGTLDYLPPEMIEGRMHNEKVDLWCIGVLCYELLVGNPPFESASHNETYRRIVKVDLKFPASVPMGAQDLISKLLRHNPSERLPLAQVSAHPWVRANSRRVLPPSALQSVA
Protocol: Aurora B inhibition was determined using the Z-Lyte assay kit from Invitrogen. The assay was performed using the recommended manufacturer's instructions with 128 μM ATP and 28 nM Aurora B (Invitrogen cat #PV3970). The % inhibition values were determined according to the manufacturer's directions and IC50 values were obtained using a non-linear 4 point logistic curve fit (XLfit4, IDBS)

[2] = test system: HCT116 colon cancer cells; experiment: Cell growth inhibition, Sulforhodamine B assay, HCT116; format: cell-based; details: Homo sapiens, HCT-116, 120 h, 5 days culture, SRB assay, read-out: Cell Line GI50 Range HCT116
[3] = test system: MDA-MB-468 breast cancer cells; experiment: Cell growth inhibition, Sulforhodamine B assay, MDA-MB-468; format: cell-based; details: Homo sapiens, 120 h, 5 days culture, SRB assay, read-out: Cell Line GI50 Range MDA-MB-468
human PLK4 = target: T3, human PLK4 (Homo sapiens, UniProt O00444); experiment: PLK4 inhibition assay (indirect ELISA); format: biochemical; details: GST-PLK4 4 nM, 15 μM ATP; read-out: IC50 Ranges PLK4
T3 construct: amino terminal GST fusion of residues 1-391 of human PLK4; made in house; host or cells: E. coli
T3 sequence (O00444 1-391): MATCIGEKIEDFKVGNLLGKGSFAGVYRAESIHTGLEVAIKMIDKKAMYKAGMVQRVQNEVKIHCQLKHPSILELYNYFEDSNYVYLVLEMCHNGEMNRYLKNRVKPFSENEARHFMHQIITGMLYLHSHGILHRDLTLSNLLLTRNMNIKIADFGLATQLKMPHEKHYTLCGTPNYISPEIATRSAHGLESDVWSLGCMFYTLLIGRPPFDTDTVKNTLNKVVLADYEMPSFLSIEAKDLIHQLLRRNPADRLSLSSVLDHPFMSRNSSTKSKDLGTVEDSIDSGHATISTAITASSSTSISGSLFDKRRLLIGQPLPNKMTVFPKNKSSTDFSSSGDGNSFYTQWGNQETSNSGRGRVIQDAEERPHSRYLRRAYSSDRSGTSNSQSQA
How it was run: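 Compounds were tested either at a single 10 μM dose or across 10-point titrations (typically 0.5 to 0.001 μM), preincubated 15 min with 4 nM GST-PLK4 (human 1-391, dephosphorylated) before 15 μM ATP was added. MBP substrate phosphorylation over 30 min, pH 7.5 HEPES/MgCl2 buffer, read by HRP/TMB ELISA (450 nm). % inhibition vs. high-activity control; IC50 by logistic fit.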

HT29 colon cancer cells = experiment: Cell growth inhibition, Sulforhodamine B assay, HT29; format: cell-based; details: Homo sapiens, HT-29, 120 h, 5 days culture, SRB assay, read-out: Cell Line GI50 Range HT29
[4] = test system: OVCAR-3 ovarian cancer cells; experiment: Cell growth inhibition, Sulforhodamine B assay, OVCAR-3; format: cell-based; details: Homo sapiens, 120 h, 5 days culture, SRB assay, read-out: Cell Line GI50 Range OVCAR-3

Row | pIC50 (human TTK) | GI50 [1] | pIC50 (Aurora B) | GI50 [2] | GI50 [3] | pIC50 (human PLK4) | GI50 (HT29 colon cancer cells) | GI50 [4] | Compound
1 | ≥ 5.30 | ≤ 5 µM | ≥ 5.30 | ≤ 5 µM | ≤ 5 µM | ≥ 5.30 |  |  | CN1CCOc2cc(-c3n[nH]c4ccc(NC(=O)C(c5ccsc5)N5CCCC5)cc34)ccc21 (stereo not drawn) [Example A17, N-(3-(4-methyl-3,4-dihydro-2H-benzo[b][1,4]oxazin-7-yl)-1H-indazol-5-yl)-2-(pyrrolidin-1-yl)-2-(thiophen-3-yl)acetamide]
2 | ≥ 5.30 | ≤ 5 µM | ≥ 5.30 | ≤ 5 µM | ≤ 5 µM | ≥ 5.30 |  |  | COc1cc(-c2n[nH]c3ccc(C(=O)NC(c4ccccc4)C4CC4)cc23)ccc1OC1CCN(C)CC1 (stereo not drawn) [Example A19, N-(cyclopropyl(phenyl)methyl)-3-(3-methoxy-4-((1-methylpiperidin-4-yl)oxy)phenyl)-1H-indazole-5-carboxamide]
3 | ≥ 5.30 | ≤ 5 µM | ≥ 5.30 | ≤ 5 µM | ≤ 5 µM | ≥ 5.30 |  |  | O=C(Nc1ccc2[nH]nc(-c3ccc4c(c3)OCCCO4)c2c1)C(c1ccsc1)N1CCCC1 (stereo not drawn) [Example A20, N-(3-(3,4-dihydro-2H-benzo[b][1,4]dioxepin-7-yl)-1H-indazol-5-yl)-2-(pyrrolidin-1-yl)-2-(thiophen-3-yl)acetamide]
4 | ≥ 5.30 | ≤ 5 µM | ≥ 5.30 | ≤ 5 µM | ≤ 5 µM | ≥ 5.30 |  |  | COc1cc(-c2n[nH]c3ccc(NC(=O)C(c4ccsc4)N4CCCC4)cc23)ccc1OC1CCN(C)CC1 (stereo not drawn) [Example A21, N-(3-(3-methoxy-4-((1-methylpiperidin-4-yl)oxy)phenyl)-1H-indazol-5-yl)-2-(pyrrolidin-1-yl)-2-(thiophen-3-yl)acetamide]
5 | ≥ 5.30 | ≤ 5 µM | 4.30 to 5.30 | ≤ 5 µM | ≤ 5 µM | ≥ 5.30 |  |  | O=C(Nc1ccc2[nH]nc(-c3ccc(N4CCOCC4)cc3)c2c1)C1CCCc2ccccc21 (stereo not drawn) [Example A22, N-(3-(4-morpholinophenyl)-1H-indazol-5-yl)-1,2,3,4-tetrahydronaphthalene-1-carboxamide]
6 | ≥ 5.30 | ≤ 5 µM |  | ≤ 5 µM | ≤ 5 µM | ≥ 5.30 | ≤ 5 µM | ≤ 5 µM | CN1CCC(Oc2ccc(-c3n[nH]c4ccc(C(=O)N[C@@H]5CCCc6ccccc65)cc34)cc2)CC1 [Example A26, (R)-3-(4-((1-methylpiperidin-4-yl)oxy)phenyl)-N-(1,2,3,4-tetrahydronaphthalen-1-yl)-1H-indazole-5-carboxamide]
7 | ≥ 5.30 | ≤ 5 µM |  | ≤ 5 µM | ≤ 5 µM | ≥ 5.30 | ≤ 5 µM | ≤ 5 µM | C[C@H](NC(=O)c1ccc2[nH]nc(-c3ccc(N4CCOCC4)cc3)c2c1)C1CCCCC1 [Example A40, (S)—N-(1-cyclohexylethyl)-3-(4-morpholinophenyl)-1H-indazole-5-carboxamide]
8 | ≥ 5.30 | ≤ 5 µM |  | ≤ 5 µM | ≤ 5 µM | ≥ 5.30 | ≤ 5 µM | 5 to 20 µM | C[C@@H](NC(=O)c1ccc2[nH]nc(-c3ccc(N4CCOCC4)cc3)c2c1)C1CCCCC1 [Example A48, (R)—N-(1-cyclohexylethyl)-3-(4-morpholinophenyl)-1H-indazole-5-carboxamide]
9 | ≥ 5.30 | ≤ 5 µM |  | ≤ 5 µM | ≤ 5 µM | ≥ 5.30 | ≤ 5 µM | 5 to 20 µM | C[C@@H](NC(=O)c1ccc2[nH]nc(-c3ccc(N4CCOCC4)cc3)c2c1)c1cccs1 [Example A53, (R)-3-(4-morpholinophenyl)-N-(1-(thiophen-2-yl)ethyl)-1H-indazole-5-carboxamide]
10 | ≥ 5.30 | ≤ 5 µM |  | ≤ 5 µM | ≤ 5 µM | ≥ 5.30 | ≤ 5 µM | 5 to 20 µM | CN1CCC(Oc2ccc(-c3n[nH]c4ccc(NC(=O)Nc5ccccc5F)cc34)cc2)CC1 [Example A56, 1-(2-fluorophenyl)-3-(3-(4-((1-methylpiperidin-4-yl)oxy)phenyl)-1H-indazol-5-yl)urea]
11 | ≥ 5.30 | ≤ 5 µM |  | ≤ 5 µM | ≤ 5 µM | ≥ 5.30 | ≤ 5 µM | 5 to 20 µM | Cc1cc(-c2n[nH]c3ccc(NC(=O)C(c4ccsc4)N4CCCC4)cc23)ccc1N1CCOCC1 (stereo not drawn) [Example A59, N-(3-(3-methyl-4-morpholinophenyl)-1H-indazol-5-yl)-2-(pyrrolidin-1-yl)-2-(thiophen-3-yl)acetamide]
12 | ≥ 5.30 | ≤ 5 µM |  | ≤ 5 µM | ≤ 5 µM | ≥ 5.30 | ≤ 5 µM | 5 to 20 µM | O=C(Nc1ccc2[nH]nc(-c3ccc(N4CCOCC4)c(F)c3)c2c1)C(c1ccsc1)N1CCCC1 (stereo not drawn) [Example A60, N-(3-(3-fluoro-4-morpholinophenyl)-1H-indazol-5-yl)-2-(pyrrolidin-1-yl)-2-(thiophen-3-yl)acetamide]
13 | ≥ 5.30 | 5 to 20 µM |  | ≤ 5 µM | 5 to 20 µM | ≥ 5.30 | ≤ 5 µM | 5 to 20 µM | O=C(NC(c1ccccc1)C1CC1)c1ccc2[nH]nc(-c3cccc(N4CCOCC4)c3)c2c1 (stereo not drawn) [Example A61, N-(cyclopropyl(phenyl)methyl)-3-(3-morpholinophenyl)-1H-indazole-5-carboxamide]
14 | ≥ 5.30 |  |  | ≤ 5 µM | ≤ 5 µM | ≥ 5.30 | ≤ 5 µM | ≤ 5 µM | O=C(Nc1ccc2[nH]nc(-c3ccc(NC4CCCC4)cc3)c2c1)C(c1ccsc1)N1CCCC1 (stereo not drawn) [Example A70, N-(3-(4-(cyclopentylamino)phenyl)-1H-indazol-5-yl)-2-(pyrrolidin-1-yl)-2-(thiophen-3-yl)acetamide]
15 | ≥ 5.30 |  | ≥ 5.30 | ≤ 5 µM | ≤ 5 µM | ≥ 5.30 | ≤ 5 µM | 5 to 20 µM | CN1CCC(Oc2ccc(-c3n[nH]c4ccc(NC(=O)Nc5c(Cl)cccc5Cl)cc34)cc2)CC1 [Example A76, 1-(2,6-dichlorophenyl)-3-(3-(4-((1-methylpiperidin-4-yl)oxy)phenyl)-1H-indazol-5-yl)urea]
